Laboratory results: patent publication US8772268B2, “Bisphosphonamidate prodrugs and uses thereof” (The Johns Hopkins University, priority 2010, dated 2014)
Entries after “also recorded” stand apart in the source; their conditions may differ.

Key:
Format in all cases: cell-based
UACC-257 = test: NCI-60 DTP Human Tumor Cell Line Screen; settings: UACC-257, Melanoma, 48 h
L1210 = test: Cytotoxicity, L1210
MDA-MB-468 = test: NCI-60 DTP Human Tumor Cell Line Screen; settings: MDA-MB-468, Breast Cancer, 48 h
IGROV1 = test: NCI-60 DTP Human Tumor Cell Line Screen; settings: IGROV1, Ovarian Cancer, 48 h
A549 NSCLC cells [1] = test: Effect of drug treatment time (MTS, drug removed); settings: A549, 24 or 2 h exposure, viability measured after 48 h
Method: Cell proliferation was determined using the CellTiter 96 Aqueous One Solution Cell Proliferation Assay MTS assay. A549 NSCLC cells were plated at 1.5×10^3 cells per well in flat bottom 96 well plates in 99 μL of media and allowed to adhere overnight. The drugs were serially diluted in 100% DMSO. For each drug treatment group, 1 μL of a 100× stock solution was added to each well for a final DMSO concentration of 1%. Cells were treated for 2, 24, or 48 under normoxic or hypoxic (1-3% oxygen) conditions. Following 2 or 24 h, media containing drug was removed, the cells were washed 1× with fresh media, and 100 μL fresh media was added to each well. Cells were then allowed to grow for an additional 46 or 24 h in drug free media. After 48 h, cells were incubated with MTS dye (20 μL well^−1) for 40 min to 2 h. Absorbance at 490 nm was determined using a SpectraMax M2 (Molecular Devices) plate reader. The percent cell proliferation was calculated by converting the experimental absorbance to percentage of control, which was then plotted vs. drug concentration. The IC50 values were determined using a non-linear dose-response analysis in GraphPad Prism version 4.0.
A549 cells were treated with prodrug 14 for 24 or 2 h. Prodrug was removed and cell viability measured after 48 h using a standard MTS assay. Longer exposure to […] results in lower […].

SK-OV-3 = test: NCI-60 DTP Human Tumor Cell Line Screen; settings: SK-OV-3, Ovarian Cancer, 48 h
SW-620 = test: NCI-60 DTP Human Tumor Cell Line Screen; settings: SW-620, Colon Cancer, 48 h
HL-60(TB) = test: NCI-60 DTP Human Tumor Cell Line Screen; settings: Leukemia, 48 h
NCI-H322M = test: NCI-60 DTP Human Tumor Cell Line Screen; settings: Non-Small Cell Lung Cancer, 48 h
SNB-19 = test: NCI-60 DTP Human Tumor Cell Line Screen; settings: SNB-19, CNS Cancer, 48 h
M14 = test: NCI-60 DTP Human Tumor Cell Line Screen; settings: M14, Melanoma, 48 h
TK-10 = test: NCI-60 DTP Human Tumor Cell Line Screen; settings: TK-10, Renal Cancer, 48 h
ACHN = test: NCI-60 DTP Human Tumor Cell Line Screen; settings: Renal Cancer, 48 h
MOLT-4 = test: NCI-60 DTP Human Tumor Cell Line Screen; settings: MOLT-4, Leukemia, 48 h
NCI-H23 = test: NCI-60 DTP Human Tumor Cell Line Screen; settings: NCI-H23, Non-Small Cell Lung Cancer, 48 h
A549 NSCLC cells [2] = test: Cell cycle analysis (PI and flow cytometry); settings: A549, 0, 3, or 10 μM for 72 h, nocodazole for the last 24 h
Method: PI and flow cytometry analysis were performed to study the effects of prodrug 14 on cell cycle.
Briefly, A549 NSCLC cells were plated at 6.7×10^4 cells per well in flat bottom 6-well plates. Cells were dosed as described above. At 24, 48 or 72 hours following drug treatment, the media was collected, and the cells were washed with 1 mL PBS. Each well was trypsinized with 600 μL trypsin for 3-5 min. The trypsin reaction was quenched with an equal volume of media. All supernatants and washes were combined and centrifuged at 1,500 rpm for 5 min. Supernantant was decanted, and the cells were washed with 2 mL 1% FBS/PBS. Cells were centrifuged at 1,500 rpm for 5 min, and the supernatant was decanted. Cells were resuspended in 1 mL cold PBS, fixed in cold 70% ethanol and incubated at 4° C. for at least 30 min. Cells were centrifuged at 1,500 rpm for 5 min, washed with 1% FBS/PBS, and resuspended in 1 mL of 2:1 1% FBS in PBS/phosphate citric acid buffer (pH 7.8). Cells were incubated at room temperature for 5 min, then spun at 1,500 rpm for 5 min. The supernatant was decanted, the cells were resuspended and incubated in 300 μL PBS/FBS/PURNase solution (10 μg/mL propidium iodide and 3 K.U. of RNase A) for 30 mM at 37° C. Flow cytometry was performed to analyze DNA content, collecting ten thousand PI positive gated events per sample.

RXF 393 = test: NCI-60 DTP Human Tumor Cell Line Screen; settings: RXF 393, Renal Cancer, 48 h
RPMI-8226 = test: NCI-60 DTP Human Tumor Cell Line Screen; settings: RPMI-8226, Leukemia, 48 h
HOP-62 = test: NCI-60 DTP Human Tumor Cell Line Screen; settings: HOP-62, Non-Small Cell Lung Cancer, 48 h
786-0 = test: NCI-60 DTP Human Tumor Cell Line Screen; settings: 786-0, Renal Cancer, 48 h
MCF7 = test: NCI-60 DTP Human Tumor Cell Line Screen; settings: MCF7, Breast Cancer, 48 h
HT29 = test: NCI-60 DTP Human Tumor Cell Line Screen; settings: HT29, Colon Cancer, 48 h
K-562 = test: NCI-60 DTP Human Tumor Cell Line Screen; settings: K-562, Leukemia, 48 h
COLO 205 = test: NCI-60 DTP Human Tumor Cell Line Screen; settings: COLO 205, Colon Cancer, 48 h
NCI/ADR-RES = test: NCI-60 DTP Human Tumor Cell Line Screen; settings: Ovarian Cancer, 48 h

CN(CCCCCl)P(=O)(OCc1ccc([N+](=O)[O-])cc1)C(Cl)(Cl)P(=O)(OCc1ccc([N+](=O)[O-])cc1)N(C)CCCCCl (stereo not drawn) [compound 14]
Log10GI50 (UACC-257): −5.56
Log10LC50 (UACC-257): >−4.00
Log10TGI (UACC-257): −5.10
IC50 (L1210): 11.7 ± 1.78 µM
Log10GI50 (MDA-MB-468): −5.58
Log10LC50 (MDA-MB-468): >−4.00
Log10TGI (MDA-MB-468): −5.07
Log10GI50 (IGROV1): −5.39
Log10LC50 (IGROV1): >−4.00
Log10TGI (IGROV1): >−4.00
growth inhibition over shorter drug treatment times (A549 NSCLC cells [1]): more potent growth inhibition than zoledronate
Log10GI50 (SK-OV-3): −5.19
Log10LC50 (SK-OV-3): >−4.00
Log10TGI (SK-OV-3): >−4.00
Log10GI50 (SW-620): −5.27
Log10LC50 (SW-620): >−4.00
Log10TGI (SW-620): >−4.00
Log10GI50 (HL-60(TB)): −5.39
Log10LC50 (HL-60(TB)): >−4.00
Log10TGI (HL-60(TB)): >−4.00
Log10GI50 (NCI-H322M): −5.34
Log10LC50 (NCI-H322M): >−4.00
Log10TGI (NCI-H322M): >−4.00
Log10GI50 (SNB-19): −5.30
Log10LC50 (SNB-19): >−4.00
Log10TGI (SNB-19): >−4.00
Log10GI50 (M14): −5.40
Log10LC50 (M14): >−4.00
Log10TGI (M14): >−4.00
Log10GI50 (TK-10): −5.35
Log10LC50 (TK-10): >−4.00
Log10TGI (TK-10): >−4.00
Log10GI50 (ACHN): −5.49
Log10LC50 (ACHN): >−4.00
Log10TGI (ACHN): >−4.00
Log10GI50 (MOLT-4): −5.53
Log10LC50 (MOLT-4): >−4.00
Log10TGI (MOLT-4): −5.04
Log10GI50 (NCI-H23): −5.58
Log10LC50 (NCI-H23): >−4.00
Log10TGI (NCI-H23): >−4.00
effect on cell cycle (A549 NSCLC cells [2]): G1 cell cycle arrest; also recorded: accumulation of cells in G1 phase is evident
Log10GI50 (RXF 393): −5.50
Log10LC50 (RXF 393): >−4.00
Log10TGI (RXF 393): −4.38
Log10GI50 (RPMI-8226): −5.57
Log10LC50 (RPMI-8226): >−4.00
Log10TGI (RPMI-8226): >−4.00
Log10GI50 (HOP-62): >−4.00
Log10LC50 (HOP-62): >−4.00
Log10TGI (HOP-62): >−4.00
Log10GI50 (786-0): −5.28
Log10LC50 (786-0): >−4.00
Log10TGI (786-0): >−4.00
Log10GI50 (MCF7): −5.47
Log10LC50 (MCF7): >−4.00
Log10TGI (MCF7): −4.82
Log10GI50 (HT29): −5.48
Log10LC50 (HT29): >−4.00
Log10TGI (HT29): −4.65
Log10GI50 (K-562): −5.45
Log10LC50 (K-562): >−4.00
Log10TGI (K-562): >−4.00
Log10GI50 (COLO 205): −5.53
Log10LC50 (COLO 205): >−4.00
Log10TGI (COLO 205): −5.10
Log10GI50 (NCI/ADR-RES): −5.58
Log10LC50 (NCI/ADR-RES): >−4.00
Log10TGI (NCI/ADR-RES): >−4.00
